# Values of other authors in US20230349886A1, “SYSTEMS AND METHODS FOR PREDICTING CARDIOTOXICITY OF MOLECULAR PARAMETERS OF A COMPOUND BASED ON MACHINE LEARNING ALGORITHMS” (UTI Limited Partnership, priority 2015, published 2023).
# Like-named read-outs stand apart in the source and are kept apart here.
# What was measured:
# [1] = Brown dataset; flag given as 1 or 0
# [2] = for Free drug: experimental data file, Kramer et al. 2013; for pFD: negative log of free drug
# hERG = hERG (Homo sapiens, UniProt Q12809); as to HERG maxInhib: test concentration or dose not given here
# Chain of hERG (Q12809 whole entry): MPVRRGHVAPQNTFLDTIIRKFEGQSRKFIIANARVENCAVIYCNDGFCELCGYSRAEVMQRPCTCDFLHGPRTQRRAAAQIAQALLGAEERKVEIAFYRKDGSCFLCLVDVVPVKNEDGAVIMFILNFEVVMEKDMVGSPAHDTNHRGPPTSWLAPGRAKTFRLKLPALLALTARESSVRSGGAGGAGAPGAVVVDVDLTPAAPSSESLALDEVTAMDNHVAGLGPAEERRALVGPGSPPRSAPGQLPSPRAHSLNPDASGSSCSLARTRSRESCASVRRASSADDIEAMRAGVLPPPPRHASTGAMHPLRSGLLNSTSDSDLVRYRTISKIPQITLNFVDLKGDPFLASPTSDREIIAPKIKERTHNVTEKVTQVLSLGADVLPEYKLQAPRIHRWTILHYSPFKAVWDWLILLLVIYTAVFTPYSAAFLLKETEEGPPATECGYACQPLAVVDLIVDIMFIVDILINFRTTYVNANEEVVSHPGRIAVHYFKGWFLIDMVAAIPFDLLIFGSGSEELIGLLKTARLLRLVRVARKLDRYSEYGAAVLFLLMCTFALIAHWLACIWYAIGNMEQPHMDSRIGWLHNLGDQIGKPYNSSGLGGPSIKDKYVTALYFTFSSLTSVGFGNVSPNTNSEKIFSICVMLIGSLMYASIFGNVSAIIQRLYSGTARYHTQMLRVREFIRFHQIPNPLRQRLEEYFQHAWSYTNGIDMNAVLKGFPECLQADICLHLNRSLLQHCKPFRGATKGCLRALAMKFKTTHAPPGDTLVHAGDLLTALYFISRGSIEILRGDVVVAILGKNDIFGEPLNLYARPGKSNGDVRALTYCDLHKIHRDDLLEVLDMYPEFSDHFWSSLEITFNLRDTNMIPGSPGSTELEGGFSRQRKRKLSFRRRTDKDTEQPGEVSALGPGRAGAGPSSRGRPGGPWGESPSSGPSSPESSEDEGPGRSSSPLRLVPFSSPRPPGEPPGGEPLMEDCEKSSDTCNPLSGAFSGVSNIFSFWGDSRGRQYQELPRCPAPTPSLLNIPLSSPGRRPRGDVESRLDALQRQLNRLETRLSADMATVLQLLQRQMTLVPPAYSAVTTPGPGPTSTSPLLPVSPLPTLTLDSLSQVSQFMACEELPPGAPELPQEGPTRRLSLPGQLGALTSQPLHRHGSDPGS
# Cav1.2 = Cav1.2 (Homo sapiens, UniProt Q13936); as to CAV1.2 max inhib: test concentration or dose not given here
# Chain of Cav1.2 (Q13936 1-2138 isoform Q13936-12): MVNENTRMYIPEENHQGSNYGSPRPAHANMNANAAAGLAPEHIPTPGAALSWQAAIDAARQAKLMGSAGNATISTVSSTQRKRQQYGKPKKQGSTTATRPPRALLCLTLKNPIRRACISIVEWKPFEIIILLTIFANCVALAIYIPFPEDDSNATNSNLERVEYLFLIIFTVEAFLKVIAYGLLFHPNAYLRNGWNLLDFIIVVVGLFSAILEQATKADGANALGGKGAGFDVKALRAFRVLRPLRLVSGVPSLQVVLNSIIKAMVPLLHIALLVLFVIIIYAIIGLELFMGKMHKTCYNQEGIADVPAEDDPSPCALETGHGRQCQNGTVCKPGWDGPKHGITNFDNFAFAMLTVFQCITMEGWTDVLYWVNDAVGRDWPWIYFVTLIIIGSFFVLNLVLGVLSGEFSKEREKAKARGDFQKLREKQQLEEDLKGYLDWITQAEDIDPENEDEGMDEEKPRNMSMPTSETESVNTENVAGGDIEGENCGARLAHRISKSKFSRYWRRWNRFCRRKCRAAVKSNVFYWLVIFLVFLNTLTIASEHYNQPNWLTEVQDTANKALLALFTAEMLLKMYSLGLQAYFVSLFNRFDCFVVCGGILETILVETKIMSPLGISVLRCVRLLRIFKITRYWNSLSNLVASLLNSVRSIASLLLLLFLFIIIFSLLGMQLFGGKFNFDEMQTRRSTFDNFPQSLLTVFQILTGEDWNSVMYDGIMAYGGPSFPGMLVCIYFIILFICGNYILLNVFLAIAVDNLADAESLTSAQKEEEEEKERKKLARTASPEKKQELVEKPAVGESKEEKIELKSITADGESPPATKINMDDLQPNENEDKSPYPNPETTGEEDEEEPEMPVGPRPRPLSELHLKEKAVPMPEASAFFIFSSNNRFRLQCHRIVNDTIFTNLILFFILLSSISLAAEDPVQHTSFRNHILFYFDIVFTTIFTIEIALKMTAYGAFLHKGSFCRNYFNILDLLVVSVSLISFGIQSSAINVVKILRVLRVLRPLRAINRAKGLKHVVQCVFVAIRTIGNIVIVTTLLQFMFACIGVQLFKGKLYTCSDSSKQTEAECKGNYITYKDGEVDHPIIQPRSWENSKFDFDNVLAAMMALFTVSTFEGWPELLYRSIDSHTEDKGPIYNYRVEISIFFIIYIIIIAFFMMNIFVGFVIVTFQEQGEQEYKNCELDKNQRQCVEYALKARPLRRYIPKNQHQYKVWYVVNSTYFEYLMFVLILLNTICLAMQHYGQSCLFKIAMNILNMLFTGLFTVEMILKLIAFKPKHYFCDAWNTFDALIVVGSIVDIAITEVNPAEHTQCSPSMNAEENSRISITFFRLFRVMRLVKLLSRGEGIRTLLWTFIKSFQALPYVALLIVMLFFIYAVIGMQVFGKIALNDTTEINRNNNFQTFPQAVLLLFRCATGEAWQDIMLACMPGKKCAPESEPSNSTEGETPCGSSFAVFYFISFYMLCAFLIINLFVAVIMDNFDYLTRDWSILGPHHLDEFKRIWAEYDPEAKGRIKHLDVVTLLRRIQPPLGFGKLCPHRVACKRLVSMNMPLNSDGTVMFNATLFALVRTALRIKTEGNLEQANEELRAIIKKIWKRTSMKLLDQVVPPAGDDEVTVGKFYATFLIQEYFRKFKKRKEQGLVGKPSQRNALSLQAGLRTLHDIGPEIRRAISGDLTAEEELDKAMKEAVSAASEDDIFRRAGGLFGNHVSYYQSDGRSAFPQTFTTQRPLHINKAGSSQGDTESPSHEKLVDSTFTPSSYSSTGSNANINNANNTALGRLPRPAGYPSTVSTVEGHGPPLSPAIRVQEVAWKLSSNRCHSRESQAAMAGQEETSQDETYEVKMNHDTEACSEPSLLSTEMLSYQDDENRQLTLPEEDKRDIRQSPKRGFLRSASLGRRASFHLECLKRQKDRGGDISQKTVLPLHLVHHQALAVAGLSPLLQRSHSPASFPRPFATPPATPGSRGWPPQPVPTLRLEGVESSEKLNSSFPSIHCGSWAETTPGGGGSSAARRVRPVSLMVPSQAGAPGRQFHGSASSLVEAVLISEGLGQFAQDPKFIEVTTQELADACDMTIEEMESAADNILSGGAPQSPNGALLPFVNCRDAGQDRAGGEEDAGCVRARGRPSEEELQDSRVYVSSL
# Chain of Cav1.2 (Q08289 whole entry partner): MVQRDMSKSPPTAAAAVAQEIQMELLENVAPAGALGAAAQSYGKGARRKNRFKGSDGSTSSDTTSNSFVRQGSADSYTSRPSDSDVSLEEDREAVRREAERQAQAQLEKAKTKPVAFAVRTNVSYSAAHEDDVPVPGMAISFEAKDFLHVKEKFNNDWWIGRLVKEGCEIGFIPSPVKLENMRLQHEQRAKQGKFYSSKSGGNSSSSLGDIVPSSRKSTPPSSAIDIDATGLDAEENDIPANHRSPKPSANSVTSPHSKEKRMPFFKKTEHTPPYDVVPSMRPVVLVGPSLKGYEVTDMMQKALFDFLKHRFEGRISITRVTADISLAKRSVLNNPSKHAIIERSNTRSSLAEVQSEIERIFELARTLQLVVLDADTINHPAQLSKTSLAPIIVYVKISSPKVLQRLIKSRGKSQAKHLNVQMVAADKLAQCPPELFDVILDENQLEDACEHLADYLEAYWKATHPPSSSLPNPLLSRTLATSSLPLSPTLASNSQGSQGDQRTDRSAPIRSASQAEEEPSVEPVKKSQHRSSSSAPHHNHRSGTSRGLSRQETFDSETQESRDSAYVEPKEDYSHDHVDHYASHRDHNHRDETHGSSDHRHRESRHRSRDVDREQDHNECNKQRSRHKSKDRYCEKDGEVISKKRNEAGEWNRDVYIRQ
# Chain of Cav1.2 (P54289 25-946 partner limits assumed): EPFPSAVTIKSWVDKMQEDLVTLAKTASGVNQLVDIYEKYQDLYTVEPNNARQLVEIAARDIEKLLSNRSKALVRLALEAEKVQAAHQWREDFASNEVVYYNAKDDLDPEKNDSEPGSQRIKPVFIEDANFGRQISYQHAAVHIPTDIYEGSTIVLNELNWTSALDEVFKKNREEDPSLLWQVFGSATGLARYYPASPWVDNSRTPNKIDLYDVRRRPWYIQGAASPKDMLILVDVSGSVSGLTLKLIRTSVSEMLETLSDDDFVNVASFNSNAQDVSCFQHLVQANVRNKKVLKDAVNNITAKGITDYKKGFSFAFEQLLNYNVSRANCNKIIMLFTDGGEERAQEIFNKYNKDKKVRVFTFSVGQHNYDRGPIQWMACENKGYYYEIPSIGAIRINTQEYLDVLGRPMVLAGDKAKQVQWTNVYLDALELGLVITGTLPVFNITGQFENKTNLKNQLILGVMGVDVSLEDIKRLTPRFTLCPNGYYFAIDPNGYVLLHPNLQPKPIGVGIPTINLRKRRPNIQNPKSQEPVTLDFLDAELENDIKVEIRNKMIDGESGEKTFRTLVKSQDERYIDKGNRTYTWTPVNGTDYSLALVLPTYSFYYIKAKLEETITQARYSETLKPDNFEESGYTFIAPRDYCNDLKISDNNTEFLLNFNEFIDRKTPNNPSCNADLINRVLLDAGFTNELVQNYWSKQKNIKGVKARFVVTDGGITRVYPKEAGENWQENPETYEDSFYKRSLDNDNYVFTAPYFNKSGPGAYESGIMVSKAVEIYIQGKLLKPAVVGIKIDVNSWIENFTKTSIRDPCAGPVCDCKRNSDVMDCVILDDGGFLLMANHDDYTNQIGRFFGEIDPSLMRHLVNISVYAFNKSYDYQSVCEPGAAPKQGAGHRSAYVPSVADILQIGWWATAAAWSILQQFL
# Chain of Cav1.2 (P54289 947-1103 partner limits assumed): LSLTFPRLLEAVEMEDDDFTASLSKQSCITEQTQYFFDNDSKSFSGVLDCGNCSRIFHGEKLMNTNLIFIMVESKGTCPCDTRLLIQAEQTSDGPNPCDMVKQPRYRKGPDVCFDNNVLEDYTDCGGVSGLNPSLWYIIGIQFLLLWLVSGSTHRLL
# Nav1.5 = Nav1.5 (Homo sapiens, UniProt Q14524); settings: for IC50: read-out: NAV1.5 IC50; as to NAV1.5 max inhib: test concentration or dose not given here
# [3] = read-out: HERG IC50, Brown dataset
# [4] = read-out: CAV1.2 IC50, Brown dataset
# [5] = Table 11, calculated from HERG-IC50 of the Kramer et al. 2013 data
SMILES,Ris (TdP risk flag) [1],CAV1.2 max inhib (Cav1.2; Brown dataset),NAV1.5 max inhib (Nav1.5; Brown dataset),IC50 (Nav1.5; Brown dataset) [µM],also measured
CCCCc1oc2ccccc2c1C(=O)c1cc(I)c(OCCN(CC)CC)c(I)c1 [amiodaron],1,,,,
CCCCc1oc2ccccc2c1C(=O)c1cc(I)c(OCCN(CC)CC)c(I)c1 [amiodarone],,,,,Free drug [2]: 0.0008 µM; pFD [2]: 9.097
COc1ccc(CCN2CCC(Nc3nc4ccccc4n3Cc3ccc(F)cc3)CC2)cc1 [astemizole],1,,,,Free drug [2]: 0.0003 µM; pFD [2]: 9.523
CN(C)CCCN1c2ccccc2Sc2ccc(Cl)cc21 [chlorprom ne],1,,,,HERG maxInhib (hERG; Brown dataset): 96.7; IC50 (hERG; [3]): 1.5 µM
COc1cc(N)c(Cl)cc1C(=O)NC1CCN(CCCOc2ccc(F)cc2)CC1OC (centres unmarked) [cisapride],1,42.8,22.9,337,IC50 (Cav1.2; [4]): 11.8 µM
CN1CCN(C2=Nc3cc(Cl)ccc3Nc3ccccc32)CC1 [clozapine],,73.5,91.8,15.1,HERG maxInhib (hERG; Brown dataset): 97.7
CN1C(=O)CN=C(c2ccccc2)c2cc(Cl)ccc21 [diazepam],0,,,,
CC(C)N(CCC(C(N)=O)(c1ccccc1)c1ccccn1)C(C)C (centres unmarked) [disopyrami],,,68.9,168,CAV1.2 max inhib (Cav1.2): 22.1; CAV1.2 pIC50 (Cav1.2): 2.9843 902; IC50 (Cav1.2): 1040 µM
CN(CCOc1ccc(NS(C)(=O)=O)cc1)CCc1ccc(NS(C)(=O)=O)cc1 [dofetilide],1,54.2,,,
O=C(CCCN1CC=C(n2c(=O)[nH]c3ccccc32)CC1)c1ccc(F)cc1 [droperidol],1,83.4,59,22.7,IC50 (Cav1.2; [4]): 7.6 µM
CNCC[C@H](Oc1cccc2ccccc12)c1cccs1 [duloxetine],0,99.8,,,HERG maxInhib (hERG): 96.3; IC50 (Cav1.2; [4]): 2.8 µM; NAV1.5 max inhib (Nav1.5): 100; IC50 (Nav1.5): 5.1 µM
CCCCN(CCCC)CCC(O)c1cc2c(Cl)cc(Cl)cc2c2cc(C(F)(F)F)ccc12 (centres unmarked) [halofantrin],,,8.3,331,HERG maxInhib (hERG): 77.9; HERG pIC50 (hERG): 6.4202 403; IC50 (hERG): 0.38 µM
CCCCN(CCCC)CCC(O)c1cc2c(Cl)cc(Cl)cc2c2cc(C(F)(F)F)ccc12 (centres unmarked) [halofantrine],,,,,pIC50 (hERG): 6.42
O=C(CCCN1CCC(O)(c2ccc(Cl)cc2)CC1)c1ccc(F)cc1 [haloperidol],,94,96.6,,HERG maxInhib (hERG): 89.2
CC(=O)NC[C@H]1CN(c2ccc(N3CCOCC3)c(F)c2)C(=O)O1 [linezolid],0,70.3,9.6,2640,HERG maxInhib (hERG; Brown dataset): 19.3; pIC50 (hERG; [5]): 2.94; IC50 (hERG; [3]): 1150 µM; IC50 (Cav1.2; [4]): 105 µM
CCOC(=O)N1CCC(=C2c3ccc(Cl)cc3CCc3cccnc32)CC1 [loratadine],0,,,,
CCC(=O)C(CC(C)N(C)C)(c1ccccc1)c1ccccc1 (centres unmarked) [methadone],1,96.9,100,31.8,HERG maxInhib (hERG; Brown dataset): 91.6; pIC50 (hERG; [5]): 5.456; IC50 (hERG; [3]): 3.5 µM
COCC(=O)O[C@]1(CCN(C)CCCc2nc3ccccc3[nH]2)CCc2cc(F)ccc2[C@@H]1C(C)C [mibefradil],0,92.1,100,,
COc1c(N2C[C@@H]3CCCN[C@@H]3C2)c(F)cc2c(=O)c(C(=O)O)cn(C3CC3)c12 [moxifloxacin],,53.7,17.4,,HERG maxInhib (hERG; Brown dataset): 75.9
